The molecules below were run against T1, human V1a receptor (Homo sapiens, UniProt P37288) (assay: human V1a receptor binding (3H-Vasopressin SPA, HEK293 membranes)). Settings: displacement of 4 nM 3H-Vasopressin, membranes of HEK293 cells transiently transfected with human V1a receptor; Ki from IC50 by Cheng-Prussoff.
T1 construct: expressed in transfected cells; host or cells: HEK293 cells, transiently transfected; cell membranes
Method in brief: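 Ki derived by Cheng-Prusoff from IC50 curves normalised to specific binding. Serially diluted compounds (in 2% DMSO) competed with 3H-vasopressin (4 nM working solution) for 1 h at room temperature on SPA beads bearing membranes of transiently transfected HEK293 cells; unlabelled vasopressin defined non-specific counts.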

T1 sequence (P37288 whole entry): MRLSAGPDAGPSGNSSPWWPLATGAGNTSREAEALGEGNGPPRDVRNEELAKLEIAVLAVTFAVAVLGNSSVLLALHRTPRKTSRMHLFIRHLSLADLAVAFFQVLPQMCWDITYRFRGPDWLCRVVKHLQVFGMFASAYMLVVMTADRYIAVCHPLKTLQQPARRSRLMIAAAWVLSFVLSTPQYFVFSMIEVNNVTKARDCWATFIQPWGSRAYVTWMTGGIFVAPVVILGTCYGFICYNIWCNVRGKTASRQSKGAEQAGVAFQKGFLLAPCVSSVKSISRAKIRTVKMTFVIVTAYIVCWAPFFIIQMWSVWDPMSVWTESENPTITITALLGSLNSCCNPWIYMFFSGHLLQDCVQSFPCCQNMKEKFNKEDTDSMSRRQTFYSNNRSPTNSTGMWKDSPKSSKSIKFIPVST

| Compound | Ki [nM] |
| --- | --- |
| Cc1cc(Cn2cc(C(=O)N3CCC4(CC3)OC(=O)c3cc(F)ccc34)c3ccc(Cl)cc32)on1 [Example 184, 1′-({6-Chloro-1-[(3-methylisoxazol-5-yl)methyl]-1H-indol-3-yl}carbonyl)-5-fluoro-3H-spiro[2-benzofuran-1,4′-piperidin]-3-one] | 3.4 |
| O=C1OC2(CCN(C(=O)c3cn(-c4ccccc4-c4ccccc4)c4cc(Cl)ccc34)CC2)c2ccccc21 [Example 157, 1′-[(1-Biphenyl-2-yl-6-chloro-1H-indol-3-yl)carbonyl]-3H-spiro[2-benzofuran-1,4′-piperidin]-3-one] | 39.8 |
| O=C(c1cn(S(=O)(=O)c2cc(F)cc(F)c2)c2cc(Cl)ccc12)N1CCC2(CC1)OCc1ccccc12 [Example 218] | 25.1 |
| O=C1OC2(CCN(C(=O)c3cn(CC(=O)N4CCCCC4)c4cc(Cl)ccc34)CC2)c2ccccc21 [Example 104, 1′-{[6-Chloro-1-(2-oxo-2-piperidin-1-ylethyl)-1H-indol-3-yl]carbonyl}-3H-spiro[2-benzofuran-1,4′-piperidin]-3-one] | 1.3 |
| O=C(c1cn(CCNO)c2cc(Cl)ccc12)N1CCC2(CC1)OCc1ccccc12 [Example 262, 2-[6-Chloro-3-(1′H,3H-spiro[2-benzofuran-1,4′-piperidin]-1′-ylcarbonyl)-1H-indol-1-yl]-N-hydroxyethanamine] | 4.3 |
| O=C1OC2(CCN(C(=O)c3cn(CC(=O)N4CCOCC4)c4cc(Cl)ccc34)CC2)c2ccc(F)cc21 [Example 113, 1′-{[6-Chloro-1-(2-morpholin-4-yl-2-oxoethyl)-1H-indol-3-yl]carbonyl}-5-fluoro-3H-spiro[2-benzofuran-1,4′-piperidin]-3-one] | 1.1 |
| Cc1cc(Cn2cc(C(=O)N3CCC4(CC3)OC(=O)c3cc(F)ccc34)c3ccc(Cl)cc32)no1 [Example 179, 1′-({6-Chloro-1-[(5-methylisoxazol-3-yl)methyl]-1H-indol-3-yl}carbonyl)-5-fluoro-3H-spiro[2-benzofuran-1,4′-piperidin]-3-one] | 3.1 |
| COc1ccc(Cn2c(C)c(C(=O)N3CCC4(CC3)OCc3ccccc34)c3ccccc32)cc1 [Example 55, 1′-{[1-(4-methoxybenzyl)-2-methyl-1H-indol-3-yl]carbonyl}-3H-spiro[2-benzofuran-1,4′-piperidine]] | 7.9 |
| Cc1c(C(=O)N2CCC3(CC2)OCc2ccc(Cl)cc23)c2ccccc2n1Cc1ccccc1 [Example 40, 1′-[(1-benzyl-2-methyl-1H-indol-3-yl)carbonyl]-6-chloro-3H-spiro[2-benzofuran-1,4′-piperidine]] | 2.9 |
| O=C(Cn1cc(C(=O)N2CCC3(CC2)OCc2ccccc23)c2ccc(Cl)cc21)N1CCCCC1 [Example 204, 1′-{[6-Chloro-1-(2-oxo-2-piperidin-1-ylethyl)-1H-indol-3-yl]carbonyl}-3H-spiro[2-benzofuran-1,4′-piperidine]] | 1.1 |
| N#CCC1(Cn2cc(C(=O)N3CCC4(CC3)OC(=O)c3ccccc34)c3ccc(Cl)cc32)CC1 [Example 193, [1-({6-Chloro-3-[(3-oxo-1′H,3H-spiro[2-benzofuran-1,4′-piperidin]-1′-yl)carbonyl]-1H-indol-1-yl}methyl)cyclopropyl]acetonitrile] | 2.1 |
| NC(=O)c1[nH]c2cc(Cl)ccc2c1C(=O)N1CCC2(CC1)OC(=O)c1cc(F)ccc12 [Example 25, 6-chloro-3-[(5-fluoro-3-oxo-1′H,3H-spiro[2-benzofuran-1,4′-piperidin]-1′-yl)carbonyl]-1H-indole-2-carboxamide] | 20.4 |
| Cc1c(C(=O)N2CCC3(CC2)OCc2ccccc23)c2ccccc2n1Cc1ccccc1OC(F)(F)F [Example 48, 1′-({2-methyl-1-[2-(trifluoromethoxy)benzyl]-1H-indol-3-yl}carbonyl)-3H-spiro[2-benzofuran-1,4′-piperidine]] | 2.6 |
| O=C(c1cn(Cc2ccccn2)c2cc(Cl)ccc12)N1CCC2(CC1)OCc1ccccc12 [Example 231, 1′-{[6-Chloro-1-(pyridin-2-ylmethyl)-1H-indol-3-yl]carbonyl}-3H-spiro[2-benzofuran-1,4′-piperidine]] | 1.6 |
| CS(=O)(=O)NCCn1cc(C(=O)N2CCC3(CC2)OCc2ccccc23)c2ccc(Cl)cc21 [Example 271, N-{2-[6-Chloro-3-(1′H,3H-spiro[2-benzofuran-1,4′-piperidin]-1′-ylcarbonyl)-1H-indol-1-yl]ethyl}methanesulfonamide] | 1.5 |
| O=C1OC2(CCN(C(=O)c3cn(Cc4cccnc4)c4cc(Cl)ccc34)CC2)c2ccccc21 [Example 172, 1′-{[6-Chloro-1-(pyridin-3-ylmethyl)-1H-indol-3-yl]carbonyl}-3H-spiro[2-benzofuran-1,4′-piperidin]-3-one] | 3 |
| Cc1cc(Cn2cc(C(=O)N3CCC4(CC3)OCc3ccccc34)c3ccc(Cl)cc32)no1 [Example 236, 1′-({6-Chloro-1-[(5-methylisoxazol-3-yl)methyl]-1H-indol-3-yl}carbonyl)-3H-spiro[2-benzofuran-1,4′-piperidine]] | 1.7 |

| Compound | Ki [nM] |
| --- | --- |
| CNCCNC(=O)Cn1cc(C(=O)N2CCC3(CC2)OCc2ccccc23)c2ccc(Cl)cc21 [Example 251, 2-[6-Chloro-3-(1′H,3H-spiro[2-benzofuran-1,4′-piperidin]-1′-ylcarbonyl)-1H-indol-1-yl]-N-[2-(methylamino)ethyl]acetamide] | 2.1 |
| Cc1c(C(=O)N2CCC3(CCc4ccccc43)CC2)c2ccccc2n1Cc1ccccc1 [Example 2, 1′-[(1-benzyl-2-methyl-1H-indol-3-yl)carbonyl]-2,3-dihydrospiro[indene-1,4′-piperidine]] | 16.2 |
| O=C1OC2(CCN(C(=O)c3cn(Cc4cc(F)cc(F)c4)c4cc(Cl)ccc34)CC2)c2ccccc21 [Example 133, 1′-{[6-Chloro-1-(3,5-difluorobenzyl)-1H-indol-3-yl]carbonyl}-3H-spiro[2-benzofuran-1,4′-piperidin]-3-one] | 0.9 |
| CC(=O)NCCn1cc(C(=O)N2CCC3(CC2)OCc2ccccc23)c2ccc(Cl)cc21 [Example 270, N-{2-[6-Chloro-3-(1′H,3H-spiro[2-benzofuran-1,4′-piperidin]-1′-ylcarbonyl)-1H-indol-1-yl]ethyl}acetamide] | 1.3 |
| CNC(=O)Cn1cc(C(=O)N2CCC3(CC2)NC(=O)c2ccccc23)c2ccc(Cl)cc21 [Example 283, 2-{6-Chloro-3-[(3-oxo-2,3-dihydro-1′H-spiro[isoindole-1,4′-piperidin]-1′-yl)carbonyl]-1H-indol-1-yl}-N-methylacetamide] | 63.1 |
| COCC1(Cn2cc(C(=O)N3CCC4(CC3)OC(=O)c3ccccc34)c3ccc(Cl)cc32)CC1 [Example 192, 1′-[(6-Chloro-1-{[1-(methoxymethyl)cyclopropyl]methyl}-1H-indol-3-yl)carbonyl]-3H-spiro[2-benzofuran-1,4′-piperidin]-3-one] | 2.4 |
| COC(=O)c1ccc(Cn2c(C)c(C(=O)N3CCC4(CC3)OCc3ccccc34)c3ccccc32)cc1 [Example 50, methyl 4-{[2-methyl-3-(1′H,3H-spiro[2-benzofuran-1,4′-piperidin]-1′-ylcarbonyl)-1H-indol-1-yl]methyl}benzoate] | 10.6 |
| O=C(c1cn(Cc2cccnc2)c2cc(Cl)ccc12)N1CCC2(CC1)CNc1ccccc12 [Example 102, 1′-{[6-Chloro-1-(pyridin-3-ylmethyl)-1H-indol-3-yl]carbonyl}-1,2-dihydrospiro[indole-3,4′-piperidine]] | 25.1 |
| Cc1c(C(=O)N2CCC3(CC2)OCc2ccccc23)c2ccccc2n1S(=O)(=O)c1ccccc1 [Example 45, 1′-{[2-methyl-1-(phenylsulfonyl)-1H-indol-3-yl]carbonyl}-3H-spiro[2-benzofuran-1,4′-piperidine]] | 9.5 |
| CNC(=O)Cn1cc(C(=O)N2CCC3(CC2)OCc2ccccc23)c2ccc(Cl)cc21 [Example 255, 2-[6-Chloro-3-(1′H,3H-spiro[2-benzofuran-1,4′-piperidin]-1′-ylcarbonyl)-1H-indol-1-yl]-N-methylacetamide] | 1.4 |
| O=C(c1cn(-c2ccccn2)c2cc(Cl)ccc12)N1CCC2(CC1)OCc1ccccc12 [Example 227] | 3.8 |
| Cc1nc(Cn2cc(C(=O)N3CCC4(CC3)OC(=O)c3cc(F)ccc34)c3ccc(Cl)cc32)c(C2CC2)o1 [Example 182, 1′-({6-Chloro-1-[(5-cyclopropyl-2-methyl-1,3-oxazol-4-yl)methyl]-1H-indol-3-yl}carbonyl)-5-fluoro-3H-spiro[2-benzofuran-1,4′-piperidin]-3-one] | 4 |
| CN1CCN(C(=O)c2[nH]c3cc(Cl)ccc3c2C(=O)N2CCC3(CC2)OC(=O)c2cc(F)ccc23)CC1 [Example 32, 1′-({6-chloro-2-[(4-methylpiperazin-1-yl)carbonyl]-1H-indol-3-yl}carbonyl)-5-fluoro-3H-spiro[2-benzofuran-1,4′-piperidin]-3-one] | 27.5 |
| O=C1OC2(CCN(C(=O)c3cn(CCC4CCOCC4)c4cc(Cl)ccc34)CC2)c2ccccc21 [Example 196, 1′-({6-Chloro-1-[2-(tetrahydro-2H-pyran-4-yl)ethyl]-1H-indol-3-yl}carbonyl)-3H-spiro[2-benzofuran-1,4′-piperidin]-3-one] | 1.4 |
| O=C1OC2(CCN(C(=O)c3cn(Cc4cc(F)cc(F)c4)c4ccccc34)CC2)c2ccc(F)cc21 [Example 201, 1′-{[1-(3,5-Difluorobenzyl)-1H-indol-3-yl]carbonyl}-5-fluoro-3H-spiro[2-benzofuran-1,4′-piperidin]-3-one] | 4.6 |
| N#CCn1cc(C(=O)N2CCC3(CC2)OCc2ccccc23)c2ccc(Cl)cc21 [Example 76, [6-chloro-3-(1′H,3H-spiro[2-benzofuran-1,4′-piperidin]-1′-ylcarbonyl)-1H-indol-1-yl]acetonitrile] | 1.7 |

— patent US7332501B2, “Indol-3-yl-carbonyl-spiro-piperidine derivatives as V1a receptor antagonists” (Hoffmann-La Roche Inc., priority 2005, dated 2008)
